Measured values reported in patent US20220168427A1 (Ranok Therapeutics (Hangzhou) Co. Ltd., priority 2019, published 2022).

Tests used:
HSP90α = HSP90α (Homo sapiens, UniProt P07900); experiment: HSP90α Binding Fluorescent Polarization (FP) Assay; conditions: competition with FITC-geldanamycin; read-out: HSP90 Binding Potency
How it was run: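 Duplicate wells held BSA buffer, FITC-geldanamycin tracer, compound (3-fold dilution plate spanning 40 μM–2.0 nM) and recombinant protein diluted to 28 μg/ml before addition. Polarization read at 30, 60 and 120 min, 25 °C. Background-corrected mP values gave IC50 through a four-parameter inhibitor-response fit.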

BRD4 (BD1+BD2) = molecular target: T1, BRD4 (BD1+BD2) (Homo sapiens, UniProt O60885); conditions: read-out: BRD4 Binding Potency
T1 construct: 1.8 μg/ml recombinant BRD4 (BD1+BD2 domains) protein

MV4-11 cells = experiment: MV4-11 Cell Cytotoxicity Assay; assay type: cell-based, human; conditions: human, MV4-11 cells, CCK-8
Excerpt: % Inhibition=100−(D−B)/(S−B)*100%.
S: The absorbance of the maximum (cells with DMSO)
B: The absorbance of the minimum (medium with DMSO)

Question: With `CCc1cc(-c2nnc(C(=O)NCC(F)(F)F)n2-c2ccc(CC3CCN(Cc4ccc(CNC(=O)C[C@@H]5N=C(c6ccc(Cl)cc6)c6c(sc(C)c6C)-n6c(C)nnc65)cc4)CC3)cc2)c(O)cc1O` [Compound 91, (S)-4-(4-((1-(4-((2-(4-(4-chlorophenyl)-2,3,9-trimethyl-6H-thieno[3,2-f][1,2,4]triazolo[4,3-a][1,4]diazepin-6-yl)acetamido)methyl)benzyl)piperidin-4-yl)methyl)phenyl)-5-(5-ethyl-2,4-dihydroxyphenyl)-N-(2,2,2-trifluoroethyl)-4H-1,2,4-triazole-3-carboxamide, trifluoroacetic acid] as the compound, how does the IC50 (HSP90α) read?
Answer: Its IC50 is 100 to 1000 nM.

Question: What about the IC50 (BRD4 (BD1+BD2)) of the same compound?
Answer: Its IC50 is 100 to 1000 nM.

Question: What about the IC50 at 72 h (MV4-11 cells) of the same compound?
Answer: Its IC50 at 72 h is under 100 nM.

Question: For `Cc1sc2c(c1C)C(c1ccc(Cl)cc1)=N[C@@H](CC(=O)NCCOCCOc1ccc(-n3c(S)nnc3-c3cc(C(C)C)c(O)cc3O)cc1)c1nnc(C)n1-2` [Compound 33, (S)-2-(4-(4-chlorophenyl)-2,3,9-trimethyl-6H-thieno[3,2-f][1,2,4]triazolo[4,3-a][1,4]diazepin-6-yl)-N-(2-(2-(4-(3-(2,4-dihydroxy-5-isopropylphenyl)-5-mercapto-4H-1,2,4-triazol-4-yl)phenoxy)ethoxy)ethyl)acetamide], which IC50 (HSP90α) is on record?
Answer: The IC50 was 100 to 1000 nM.

Question: What about the IC50 (BRD4 (BD1+BD2)) of the same compound?
Answer: Its IC50 is 100 to 1000 nM.

Question: And the IC50 at 72 h (MV4-11 cells)?
Answer: Its IC50 at 72 h is 100 to 1000 nM.

Question: How did the IC50 (HSP90α) turn out when `Cc1sc2c(c1C)C(c1ccc(Cl)cc1)=N[C@@H](CC(=O)NCC(=O)NCCOc1ccc(-n3c(S)nnc3-c3cc(C(C)C)c(O)cc3O)cc1)c1nnc(C)n1-2` [Compound 48, (S)-2-(4-(4-chlorophenyl)-2,3,9-trimethyl-6H-thieno[3,2-f][1,2,4]triazolo[4,3-a][1,4]diazepin-6-yl)-N-(2-((2-(4-(3-(2,4-dihydroxy-5-isopropylphenyl)-5-mercapto-4H-1,2,4-triazol-4-yl)phenoxy)ethyl)amino)-2-oxoethyl)acetamide] was run?
Answer: The IC50 was under 100 nM.

Question: And the IC50 (BRD4 (BD1+BD2))?
Answer: The IC50 was 100 to 1000 nM.

Question: And the IC50 at 72 h (MV4-11 cells)?
Answer: The IC50 at 72 h was 100 to 1000 nM.

Question: `Cc1sc2c(c1C)C(c1ccc(Cl)cc1)=N[C@@H](CC(=O)N1CCC(CN3CCN(Cc4ccc(-n5c(C(=O)NCCN6CCCCC6)nnc5-c5cc(C(C)C)c(O)cc5O)cc4)CC3)CC1)c1nnc(C)n1-2` [Compound 107, (S)-4-(4-((4-((1-(2-(4-(4-chlorophenyl)-2,3,9-trimethyl-6H-thieno[3,2-f][1,2,4]triazolo[4,3-a][1,4]diazepin-6-yl)acetyl)piperidin-4-yl)methyl)piperazin-1-yl)methyl)phenyl)-5-(2,4-dihydroxy-5-isopropylphenyl)-N-(2-(piperidin-1-yl)ethyl)-4H-1,2,4-triazole-3-carboxamide, trifluoroacetic acid] was tested. Which IC50 (HSP90α) did it give?
Answer: Its IC50 is 100 to 1000 nM.

Question: And the IC50 (BRD4 (BD1+BD2))?
Answer: Its IC50 is under 100 nM.

Question: And the IC50 at 72 h (MV4-11 cells)?
Answer: The IC50 at 72 h was under 100 nM.

Question: Which IC50 (HSP90α) does the source give for `CCn1c(=O)/c(=C2\Sc3ccccc3N2C)s/c1=C\c1cccc[n+]1CCCNC(=O)C[C@@H]1N=C(c2ccc(Cl)cc2)c2c(sc(C)c2C)-n2c(C)nnc21` [Compound 7, 1-(3-(2-((6S)-4-(4-chlorophenyl)-2,3,9-trimethyl-6H-thieno[3,2-f][1,2,4]triazolo[4,3-a][1,4]diazepin-6-yl)acetamido)propyl)-2-((Z)-((E)-3-ethyl-5-(3-methylbenzo[d]thiazol-2(3H)-ylidene)-4-oxothiazolidin-2-ylidene)methyl)pyridin-1-ium chloride] here?
Answer: The IC50 was over 1000 nM.

Question: And the IC50 (BRD4 (BD1+BD2))?
Answer: Its IC50 is under 100 nM.

Question: What about the IC50 at 72 h (MV4-11 cells) of the same compound?
Answer: Its IC50 at 72 h is 100 to 1000 nM.

Question: How did the IC50 (HSP90α) turn out when `Cc1sc2c(c1C)C(c1ccc(Cl)cc1)=N[C@@H](CC(=O)NCC(=O)NCc1ccc(-n3c(O)nnc3-c3cc(C(C)C)c(O)cc3O)cc1)c1nnc(C)n1-2` [Compound 57, 2-((6S)-4-(4-chlorophenyl)-2,3,9-trimethyl-6H-thieno[3,2-f][1,2,4]triazolo[4,3-a][1,4]diazepin-6-yl)-N-(2-((4-(3-(2,4-dihydroxy-5-isopropylphenyl)-5-hydroxy-4H-1,2,4-triazol-4-yl)benzyl)amino)-2-oxoethyl)acetamide] was run?
Answer: The IC50 was 100 to 1000 nM.

Question: And the IC50 (BRD4 (BD1+BD2))?
Answer: The IC50 was 100 to 1000 nM.

Question: What about the IC50 at 72 h (MV4-11 cells) of the same compound?
Answer: Its IC50 at 72 h is 100 to 1000 nM.

Question: What does the source list for `Cc1cc(-c2nnc(C(=O)NCC(F)(F)F)n2-c2ccc(CN3CCN(CC4CCN(C(=O)C[C@@H]5N=C(c6ccc(Cl)cc6)c6c(sc(C)c6C)-n6c(C)nnc65)CC4)CC3)cc2)c(O)cc1O` [Compound 15, 4-(4-((4-((1-(2-((6S)-4-(4-chlorophenyl)-2,3,9-trimethyl-6H-thieno[3,2-f][1,2,4]triazolo[4,3-a][1,4]diazepin-6-yl)acetyl)piperidin-4-yl)methyl)piperazin-1-yl)methyl)phenyl)-5-(2,4-dihydroxy-5-methylphenyl)-N-(2,2,2-trifluoroethyl)-4H-1,2,4-triazole-3-carboxamide, trifluoroacetic acid]?
Answer: IC50 (HSP90α): 100 to 1000 nM; IC50 (BRD4 (BD1+BD2)): > 1000 nM; IC50 at 72 h (MV4-11 cells): < 100 nM

Question: For `Cc1cc(-c2nnc(O)n2-c2ccc(CN3CCN(CC4CCN(C(=O)C[C@@H]5N=C(c6ccc(Cl)cc6)c6c(sc(C)c6C)-n6c(C)nnc65)CC4)CC3)cc2)c(O)cc1O` [Compound 9, 2-((6S)-4-(4-chlorophenyl)-2,3,9-trimethyl-6H-thieno[3,2-f][1,2,4]triazolo[4,3-a][1,4]diazepin-6-yl)-1-(4-((4-(4-(3-(2,4-dihydroxy-5-methylphenyl)-5-hydroxy-4H-1,2,4-triazol-4-yl)benzyl)piperazin-1-yl)methyl)piperidin-1-yl)ethanone, trifluoroacetic acid], which IC50 (HSP90α) is on record?
Answer: Its IC50 is 100 to 1000 nM.

Question: What about the IC50 (BRD4 (BD1+BD2)) of the same compound?
Answer: The IC50 was under 100 nM.

Question: And the IC50 at 72 h (MV4-11 cells)?
Answer: Its IC50 at 72 h is under 100 nM.

Question: How did the IC50 (HSP90α) turn out when `Cc1sc2c(c1C)C(c1ccc(Cl)cc1)=N[C@@H](CCNCC1CCN(C(=O)C3CCN(Cc4ccc(-n5c(O)nnc5-c5cc(C(C)C)c(O)cc5O)cc4)CC3)C1)c1nnc(C)n1-2` (stereo partly drawn) [Compound 66, (3-(((2-((6S)-4-(4-chlorophenyl)-2,3,9-trimethyl-6H-thieno[3,2-f][1,2,4]triazolo[4,3-a][1,4]diazepin-6-yl)ethyl)amino)methyl)pyrrolidin-1-yl)(1-(4-(3-(2,4-dihydroxy-5-isopropylphenyl)-5-hydroxy-4H-1,2,4-triazol-4-yl)benzyl)piperidin-4-yl)methanone, trifluoroacetic acid] was run?
Answer: The IC50 was 100 to 1000 nM.

Question: And the IC50 (BRD4 (BD1+BD2))?
Answer: The IC50 was over 1000 nM.

Question: What about the IC50 at 72 h (MV4-11 cells) of the same compound?
Answer: The IC50 at 72 h was 100 to 1000 nM.

Question: With `Cc1sc2c(c1C)C(c1ccc(Cl)cc1)=N[C@@H](CC(=O)N1CCN(Cc3ccc(-n4c(O)nnc4-c4cc(C(C)C)c(O)cc4O)cc3)CC1)c1nnc(C)n1-2` [Compound 38, 2-((6S)-4-(4-chlorophenyl)-2,3,9-trimethyl-6H-thieno[3,2-f][1,2,4]triazolo[4,3-a][1,4]diazepin-6-yl)-1-(4-(4-(3-(2,4-dihydroxy-5-isopropylphenyl)-5-hydroxy-4H-1,2,4-triazol-4-yl)benzyl)piperazin-1-yl)ethanone, trifluoroacetic acid] as the compound, how does the IC50 (HSP90α) read?
Answer: The IC50 was 100 to 1000 nM.

Question: And the IC50 (BRD4 (BD1+BD2))?
Answer: Its IC50 is over 1000 nM.

Question: And the IC50 at 72 h (MV4-11 cells)?
Answer: Its IC50 at 72 h is under 100 nM.

Question: For `Cc1sc2c(c1C)C(c1ccc(Cl)cc1)=N[C@@H](CCNCCOCCOc1ccc(-n3c(O)nnc3-c3cc(C(C)C)c(O)cc3O)cc1)c1nnc(C)n1-2` [Compound 63, (S)-4-(4-(4-(2-(2-((2-(4-(4-chlorophenyl)-2,3,9-trimethyl-6H-thieno[3,2-f][1,2,4]triazolo[4,3-a][1,4]diazepin-6-yl)ethyl)amino)ethoxy)ethoxy)phenyl)-5-hydroxy-4H-1,2,4-triazol-3-yl)-6-isopropylbenzene-1,3-diol, trifluoroacetic acid], which IC50 (HSP90α) is on record?
Answer: The IC50 was 100 to 1000 nM.

Question: What about the IC50 (BRD4 (BD1+BD2)) of the same compound?
Answer: The IC50 was 100 to 1000 nM.

Question: And the IC50 at 72 h (MV4-11 cells)?
Answer: The IC50 at 72 h was 100 to 1000 nM.
